Laboratory results taken from US20100056516A1 (priority 2006, published 2010).
Like-named read-outs stand apart in the source and are kept apart here.

Legend:
[1] = molecular target: HIV-1 reverse transcriptase (RNase H) (Human immunodeficiency virus type 1 group M subtype B, UniProt P04585); assay: ASH assay: RNase H mediated RNA cleavage (ECL format, BioVeris M384); type: biochemical
Experimental: Potency of a substance as an RNase H inhibitors can be determined by measuring its ability prevent RNase H catalyzed cleavage of the RNA strand in a RNA/DNA hybrid duplex substrate. RNase H activity is measured using a substrate generated by annealing the oligoribo-nucleotide 5′-rCrCrUrCrUrCrArArArArArCrArGrGrArGrCrArGrArArArGrArCrArArG (SEQ ID NO:1) to the oligodeoxyribonucleotide 5′-Biotin-[…] (SEQ ID NO:2). […] (SEQ ID NO:3). The resulting double-stranded duplex DNA product is quantitated in an ALPHA screen format using [streptavidin- and anti-fluorescein-coated beads (Packard Bioscience) following the manufacturer's guidelines and reading on a Fusion AlphaScreen instrument. Alternatively, the released 5′-Biotinylated DNA is annealed to a complementary oligodeoxyribonucleotide: 5′-ruthenium-[…] (SEQ ID NO:3). The resulting double-stranded duplex DNA product is quantitated in an ECL screen format using Dynabeads M280 coated with streptavidin (BioVeris Corporation) following the manufacturer's guidelines and reading on a BioVeris M384 Analyzer.

HIV integrase = HIV integrase (Human immunodeficiency virus type 1 group M subtype B, UniProt P04585); assay: integrase strand transfer assay (STA); type: biochemical
HXB2 virus = assay: microbe, parasite or virus in culture; type: cell-based, HIV
Method in brief: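 Single-cycle infectivity assay in HeLa P4-2 cells measuring inhibition of acute HIV infection, using HXB2 virus.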

HeLa P4-2 cell line = tested on: HeLa P4-2 cell line
Description: The HeLa P4-2 cell line used in the single cycle HIV infectivity Assay B of Example 270 was also used to determine compound cytotoxicity in the absence of viral infection.

[2] = IC50 in the STA assay, integrase strand transfer
[3] = STA (IC50, μM), integrase strand-transfer assay, Example 269
[4] = Human immunodeficiency virus 1, HXB2, HeLaP4-2, read-out: SCIA-B (IC50, μM)
[5] = Human immunodeficiency virus 1, HXB2, HeLaP4-2, read-out: antiviral IC50 (SCIA-B)
[6] = integrase strand transfer, read-out: IC50 in the STA assay

Question: What does the source list for `CCOC(=O)c1c(O)c2c(-c3ccccc3)ccnc2n(O)c1=O` [Example 4, Ethyl 1,4-dihydroxy-2-oxo-5-phenyl-1,2-dihydro-1,8-naphthylidine-3-carboxylate]?
Answer: IC50 [1]: 0.26 µM; IC50 (HIV integrase; [2]): < 50 µM; IC50 (HIV integrase; [3]): 0.24 µM; IC50 (HXB2 virus; [4]): 0.53 µM; IC50 (HXB2 virus; [5]): < 100 µM; Cytotoxicity (LD50, μM) (HeLa P4-2 cell line; human): 50 µM

Question: For `O=C(NC1CCN(Cc2ccccc2)CC1)c1c(O)c2cccnc2n(O)c1=O.O=C(O)C(F)(F)F` [Example 21, N-(1-Benzylpiperidin-4-yl)-1,4-dihydroxy-2-oxo-1,2-dihydro-1,8-naphthyridine-3-carboxamide, trifluoro-acetic acid salt], which IC50 [1] is on record?
Answer: 0.18 µM

Question: And the IC50 (HIV integrase; [2])?
Answer: < 50 µM

Question: And the IC50 (HIV integrase; [3])?
Answer: 0.25 µM

Question: And the IC50 (HXB2 virus; [4])?
Answer: 0.47 µM

Question: What about the IC50 (HXB2 virus; [5]) of the same molecule?
Answer: < 100 µM

Question: And the “Cytotoxicity (LD50, μM)” value (HeLa P4-2 cell line; cytotoxicity test B, Alamar Blue, HeLa P4-2 cells, no virus, tested up to 100 micromolar)?
Answer: >100 µM

Question: Which results are given for `Nc1ccc(-c2cccc(Cc3cc(=O)n(O)c4ncccc34)c2)cc1` [Example 234, 4-[(4′-aminobiphenyl-3-yl)methyl]-1-hydroxy-1,8-naphthyridin-2(1H)-one]?
Answer: IC50 (HIV integrase; [6]): < 50 µM; IC50 (HXB2 virus; [5]): < 100 µM

Question: For `O=c1cc(-c2cccc(O)c2)c2cccnc2n1O` [Example 237, 1-hydroxy-4-(3-hydroxyphenyl)-1,8-naphthyridin-2(1H)-one], which IC50 (HIV integrase; [6]) is on record?
Answer: < 50 µM

Question: And the IC50 (HXB2 virus; [5])?
Answer: < 100 µM

Question: How did the IC50 (HIV integrase; [6]) turn out when `NC1(c2cccc(-c3ccc(-c4cc(=O)n(O)c5ncccc45)cc3)c2)CC1` [Example 238, 4-[3′-(1-aminocyclopropyl)biphenyl-4-yl]-1-hydroxy-1,8-naphthyridin-2(1H)-one] was run?
Answer: < 50 µM

Question: What about the IC50 (HXB2 virus; [5]) of the same molecule?
Answer: < 100 µM

Question: `Nc1ccc(Cc2ccc(-c3cc(=O)n(O)c4ncccc34)cc2)cc1` [Example 239, 4-[4-(4-aminobenzyl)phenyl]-1-hydroxy-1,8-naphthyridin-2(1H)-one] was tested. Which IC50 (HIV integrase; [6]) did it give?
Answer: < 50 µM

Question: And the IC50 (HXB2 virus; [5])?
Answer: < 100 µM

Question: For `CCOC(=O)c1c(CCc2ccccc2)c2cccnc2n(O)c1=O` [Example 240, ethyl 1-hydroxy-2-oxo-4-(2-phenylethyl)-1,2-dihydro-1,8-naphthyridine-3-carboxylate], which IC50 (HIV integrase; [6]) is on record?
Answer: < 50 µM

Question: And the IC50 (HXB2 virus; [5])?
Answer: < 100 µM

Question: Which IC50 (HIV integrase; [6]) does the source give for `CCOC(=O)c1c(-c2ccc(-c3ccc(CN)cc3)cc2)c2cccnc2n(O)c1=O` [Example 243, Ethyl 4-[4′-(aminomethyl)biphenyl-4-yl]-1-hydroxy-2-oxo-1,2-dihydro-1,8-naphthyridine-3-carboxylate] here?
Answer: < 50 µM

Question: What about the IC50 (HXB2 virus; [5]) of the same molecule?
Answer: < 100 µM

Question: Which IC50 (HIV integrase; [6]) does the source give for `O=c1cc(-c2cn[nH]c2)c2cccnc2n1O` [Example 244, 1-Hydroxy-4-(pyrazol-4-yl)-1,8-naphthyridin-2-(1H)-one] here?
Answer: < 50 µM

Question: What about the IC50 (HXB2 virus; [5]) of the same molecule?
Answer: < 100 µM

Question: Which IC50 (HIV integrase; [6]) does the source give for `O=c1cc(-c2cnc3[nH]ccc3c2)c2cccnc2n1O` [Example 245, 1-hydroxy-4-(1H-pyrrolo[2,3-b]pyridin-5-yl)-1,8-naphthyridin-2(1H)-one bistrifluoroacetate] here?
Answer: < 50 µM

Question: And the IC50 (HXB2 virus; [5])?
Answer: < 100 µM

Question: What does the source list for `O=c1cc(C2=Cc3ccccc3CC2)c2cccnc2n1O` [Example 246, 4-(3,4-dihydronaphthalen-2-yl)-1-hydroxy-1,8-naphthyridin-2(1H)-one]?
Answer: IC50 (HIV integrase; [6]): < 50 µM; IC50 (HXB2 virus; [5]): < 100 µM

Question: `O=C(c1cc(=O)n(O)c2ncccc12)N1CCc2ccccc2C1` [Example 247, 4-(3,4-dihydroisoquinolin-2(1H)-ylcarbonyl)-1-hydroxy-1,8-naphthyridin-2(1H)-one] was tested. Which IC50 (HIV integrase; [6]) did it give?
Answer: < 50 µM

Question: What about the IC50 (HXB2 virus; [5]) of the same molecule?
Answer: < 100 µM

Question: What does the source list for `CCOC(=O)c1c(-c2cccc(-c3ccc(CN)cc3)c2)c2cc(-c3ccccc3OC)cnc2n(O)c1=O` [Example 248, ethyl 4-[4′-(aminomethyl)biphenyl-3-yl]-1-hydroxy-6-(2-methoxyphenyl)-2-oxo-1,2-dihydro-1,8-naphthyridine-3-carboxylate]?
Answer: IC50 (HIV integrase; [6]): < 50 µM; IC50 (HXB2 virus; [5]): < 100 µM

Question: For `CCOC(=O)c1c(O)c2c(Cc3cccc(-c4cccc(CN)c4)c3)ccnc2n(O)c1=O` [Example 249, ethyl 5-{[3′-(aminomethyl)biphenyl-3-yl]methyl}-1,4-dihydroxy-2-oxo-1,2-dihydro-1,8-naphthyridine-3-carboxylate], which IC50 (HIV integrase; [6]) is on record?
Answer: < 50 µM

Question: And the IC50 (HXB2 virus; [5])?
Answer: < 100 µM

Question: `Nc1cnc2c(c1)c(O)c(-c1ccccc1)c(=O)n2O` [Example 250, 6-amino-1,4-dihydroxy-3-phenyl-1,8-naphthyridin-2(1H)-one] was tested. Which IC50 (HIV integrase; [6]) did it give?
Answer: < 50 µM

Question: And the IC50 (HXB2 virus; [5])?
Answer: < 100 µM

Question: For `Nc1cccc(-c2ccc3c(c2)CN(c2cc(=O)n(O)c4ncccc24)CC3)c1` [Example 251, 4-[7-(3-aminophenyl)-3,4-dihydroisoquinolin-2(1H)-yl]-1-hydroxy-1,8-naphthyridin-2(1H)-one], which IC50 (HIV integrase; [6]) is on record?
Answer: < 50 µM

Question: And the IC50 (HXB2 virus; [5])?
Answer: < 100 µM

Question: Which IC50 (HIV integrase; [6]) does the source give for `NCc1cccc(-c2ccc3c(c2)CN(c2cc(=O)n(O)c4ncccc24)CC3)c1` [Example 252, 4-[7-(3-aminomethylphenyl)-3,4-dihydroisoquinolin-2(1H)-yl]-1-hydroxy-1,8-naphthyridin-2(1H)-one] here?
Answer: < 50 µM

Question: And the IC50 (HXB2 virus; [5])?
Answer: < 100 µM

Question: For `O=c1cc(N2CCc3ccc(-c4ccncc4)cc3C2)c2cccnc2n1O` [Example 253, 1-hydroxy-4-(7-pyridin-4-yl-3,4-dihydroisoquinolin-2(1H)-yl)-1,8-naphthyridin-2(1H)-one], which IC50 (HIV integrase; [6]) is on record?
Answer: < 50 µM

Question: What about the IC50 (HXB2 virus; [5]) of the same molecule?
Answer: < 100 µM

Question: Which results are given for `Nc1ccc(-c2ccc3c(c2)CN(c2cc(=O)n(O)c4ncccc24)CC3)cc1` [Example 254, 4-[7-(4-aminophenyl)-3,4-dihydroisoquinolin-2(1H)-yl]-1-hydroxy-1,8-naphthyridin-2(1H)-one]?
Answer: IC50 (HIV integrase; [6]): < 50 µM; IC50 (HXB2 virus; [5]): < 100 µM

Question: What does the source list for `O=c1cc(N2Cc3ccc(-c4ccccc4)cc3C2)c2cccnc2n1O` [Example 256, 1-hydroxy-4-(5-phenyl-1,3-dihydro-2H-isoindol-2-yl)-1,8-naphthyridin-2(1H)-one]?
Answer: IC50 (HIV integrase; [6]): < 50 µM; IC50 (HXB2 virus; [5]): < 100 µM

Question: With `CCOC(=O)c1c(N2CCc3ccc(-c4ccc(F)cc4)cc3C2)c2cccnc2n(O)c1=O` [Example 258, ethyl 4-[7-(4-fluorophenyl)-3,4-dihydroisoquinolin-2(1H)-yl]-1-hydroxy-2-oxo-1,2-dihydro-1,8-naphthyridine-3-carboxylate] as the molecule, how does the IC50 (HIV integrase; [6]) read?
Answer: > 50 µM

Question: What about the IC50 (HXB2 virus; [5]) of the same molecule?
Answer: < 100 µM

Question: `CCOC(=O)c1c(N2CCc3ccc(-c4cccc(F)c4)cc3C2)c2cccnc2n(O)c1=O` [Example 259, ethyl 4-[7-(3-fluorophenyl)-3,4-dihydroisoquinolin-2(1H)-yl]-1-hydroxy-2-oxo-1,2-dihydro-1,8-naphthyridine-3-carboxylate] was tested. Which IC50 (HIV integrase; [6]) did it give?
Answer: > 50 µM

Question: What about the IC50 (HXB2 virus; [5]) of the same molecule?
Answer: < 100 µM

Question: `O=C(NCCc1ccccc1)c1ccc2c(c1)CN(c1cc(=O)n(O)c3ncccc13)CC2` [Example 260, 4-[7-(phenylethylaminocarbonyl)-3,4-dihydroisoquinolin-2(1H)-yl]-1-hydroxy-1,8-naphthyridin-2(1H)-one] was tested. Which IC50 (HIV integrase; [6]) did it give?
Answer: < 50 µM

Question: And the IC50 (HXB2 virus; [5])?
Answer: < 100 µM

Question: For `O=C(NCc1ccccc1)c1ccc2c(c1)CCN(c1cc(=O)n(O)c3ncccc13)C2` [Example 261, 4-[6-(benzylaminocarbonyl)-3,4-dihydroisoquinolin-2(1H)-yl]-1-hydroxy-1,8-naphthyridin-2(1H)-one], which IC50 (HIV integrase; [6]) is on record?
Answer: < 50 µM

Question: And the IC50 (HXB2 virus; [5])?
Answer: < 100 µM

Question: What does the source list for `CCOC(=O)c1c(-c2ccc(CCc3ccncc3)cc2)c2cccnc2n(O)c1=O` [Example 262, Ethyl 4-[4-(2-pyridin-4-ylethyl)phenyl]-hydroxy-2-oxo-1,2-dihydro-1,8-naphthyridin-3-carboxylate]?
Answer: IC50 (HIV integrase; [6]): < 50 µM; IC50 (HXB2 virus; [5]): < 100 µM

Question: How did the IC50 (HIV integrase; [6]) turn out when `CCOC(=O)c1c(-c2cc(CCc3ccccc3F)cc(-c3ccc(CN)cc3)c2)c2cccnc2n(O)c1=O` [Example 263, ethyl 4-[4′-aminomethyl-5-(2-fluorophenethyl)biphenyl-3-yl]1-hydroxy-2-oxo-1,2-dihydro-1,8-naphthyridine-3-carboxylate] was run?
Answer: < 50 µM

Question: And the IC50 (HXB2 virus; [5])?
Answer: < 100 µM

Question: With `CCOC(=O)c1c(-c2ccc(CCc3ccc(N)cc3)cc2)c2cccnc2n(O)c1=O` [Example 264, ethyl 4-{4-[2-(4-aminophenyl)ethyl]phenyl}1-hydroxy-2-oxo-1,2,-dihydro-1,8-naphthyridin-3-carboxylate] as the molecule, how does the IC50 (HIV integrase; [6]) read?
Answer: < 50 µM

Question: And the IC50 (HXB2 virus; [5])?
Answer: < 100 µM

Question: Which IC50 (HIV integrase; [6]) does the source give for `O=c1c2ccccc2c2cccnc2n1O` [Example 265, 5-Hydroxybenzo[c]-1,8-naphthyridin-6(5B)-one] here?
Answer: < 50 µM

Question: What about the IC50 (HXB2 virus; [5]) of the same molecule?
Answer: < 100 µM

Question: How did the IC50 (HIV integrase; [6]) turn out when `CNC(=O)c1ccc2c(=O)n(O)c3ncccc3c2c1` [Example 266, 5-Hydroxy-N-methyl-6-oxo-5,6-dihydrobenzo[c]-1,8-naphthyridine-9-carboxamide] was run?
Answer: < 50 µM

Question: And the IC50 (HXB2 virus; [5])?
Answer: < 100 µM

Question: Which results are given for `O=c1c2ccc(-c3ccccc3)cc2c2cccnc2n1O` [Example 267, 5-Hydroxy-9-phenylbenzo[c]-1,8-naphthyridin-6(5.H)-one]?
Answer: IC50 (HIV integrase; [6]): < 50 µM; IC50 (HXB2 virus; [5]): < 100 µM

Question: What does the source list for `O=c1c2cc(-c3ccccc3)ccc2c2cccnc2n1O` [Example 268, 5-Hydroxy-8-phenylbenzo[c]-1,8-naphthyridin-6(5H)-one]?
Answer: IC50 (HIV integrase; [6]): < 50 µM; IC50 (HXB2 virus; [5]): < 100 µM
